In patent US20250101044A1, “METAL-ORGANIC FRAMEWORK COMPOSITE AND PREPARATION METHOD AND USE THEREOF” (priority 2021, published 2025) one finds MBC and MIC data, which are given here for one molecule.

Converted amounts (≈) assume the structure as drawn.

The experiment deals with S. aureus. Nature of the experiment: MIC and MBC antibacterial test. The settings on record: Staphylococcus aureus. The class given is cell-based.

For the molecule `O=C(O)/C=C/c1ccc(O)c(O)c1` [CA, caffeic acid], the MBC (commonly the smallest concentration meeting the test's criterion for killing) was 4 µg/mL (≈ 22.2 µM) and the lowest concentration to inhibit growth (MIC) was 4 µg/mL (≈ 22.2 µM).
